Reference: patent publication US20040018941A1, “Fused-benzene derivatives of thiouracil, herbicidal and desiccant compositions contaning them” (ISHIHARA SANGYO KAISHA, LTD., priority 2002, published 2004)

Columns and labels:
Type in all cases: in vivo
Conditions in all cases: rating 0-100 (0 no damage, 100 complete death), 14 days after application
[1] = tested on: redroot pigweed (Amaranthus retroflexus, AMARE); assay: Pre-emerge herbicidal activity, greenhouse screen, AMARE
Source text: (§1) A standard greenhouse herbicide activity screening system was used to evaluate the herbicidal efficacy and crop safety of these test compounds. Seven broadleaf weed species including redroot pigweed (Amaranthus retroflexus, AMARE), velvetleaf (Abutilon theophrasti, ABUTH), sicklepod (Cassia obtusifolia, CASOB), ivyleaf morningglory (Ipomoea hederacea, IPOHE), lambsquarters (Chenopodium album, CHEAL), common ragweed (Ambrosia artemisiifolia L., AMBEL), and cocklebur (Xanthium strumarium, XANST) were used as test species. Four grass weed species including green foxtail (Setaria viridis, SETVI), barnyardgrass (Echinochloa crus-galli, ECHCG), johnsongrass (Sorghum halepense, SORHA), and large crabgrass (Digitaria sanguinalis, DIGSA) were also used. In addition, three crop species, field corn (Zea mays L., var. Dekalb 527, CORN), soybean (Glycine max L., var. Pella 86, SOY), and upland rice (Oryza sp., var. Tebonnet, RICE) were included.
(§2) All plants were grown in 10 cm square plastic pots which were filled with a sandy loam soil mix. For pre-emerge tests, seeds were planted one day prior to application of the test compounds. For post-emerge tests, seeds were planted 8-21 days prior to the test to allow emergence and good foliage development prior to application of the test substances. At the time of the post-emerge application, plants of all species were usually at the 2-3 leaf stage of development.
(§3) All test compounds were dissolved in acetone and applied to the test units in a volume of 187 l/ha. Test materials were applied at rates ranging from 15 g ai/ha to 1000 g ai/ha using a track sprayer equipped with a TJ8001 E even flow flat fan spray nozzle. Plants were arranged on a shelf so that the top of the canopy (post-emerge) or top of the soil surface (pre-emerge) was 40-45 cm below the nozzle. Pressurized air was used to force the test solution through the nozzle as it was mechanically advanced over the top of all test plants/pots. This application simulates a typical commercial field herbicide application.
(§4) In the post-emerge test, a commercial non-ionic surfactant was also included (0.25% v/v) to enhance wetting of the leaf surfaces of target plants. Immediately after application, test units of the pre-emerge applications were watered at the soil surface to incorporate the test materials.
(§5) At 14 days after application of the test materials, phytotoxicity ratings were recorded. A rating scale of 0-100 was used as previously described in Research Methods in Weed Science, 2nd edition, B. Truelove, Ed., Southern Weed Science Society, Auburn University, Auburn, Ala., 1977. Briefly, “0” corresponds to no damage and “100” corresponds to complete death of all plants in the test unit. This scale was used both to determine efficacy against weed species and damage to crop species. Herbicide activity data for various compounds of this invention, which are shown by compound No. in Tables 1-7, are shown in Tables 8 and 9.

[2] = tested on: velvetleaf (Abutilon theophrasti, ABUTH); assay: Pre-emerge herbicidal activity, greenhouse screen, ABUTH
Source text: as §1, §2, §3, §4, §5

[3] = tested on: sicklepod (Cassia obtusifolia, CASOB); assay: Pre-emerge herbicidal activity, greenhouse screen, CASOB
Source text: as §1, §2, §3, §4, §5

[4] = tested on: ivyleaf morningglory (Ipomoea hederacea, IPOHE); assay: Pre-emerge herbicidal activity, greenhouse screen, IPOHE
Source text: as §1, §2, §3, §4, §5

[5] = tested on: lambsquarters (Chenopodium album, CHEAL); assay: Pre-emerge herbicidal activity, greenhouse screen, CHEAL
Source text: as §1, §2, §3, §4, §5

[6] = tested on: common ragweed (Ambrosia artemisiifolia L., AMBEL); assay: Pre-emerge herbicidal activity, greenhouse screen, AMBEL
Source text: as §1, §2, §3, §4, §5

[7] = tested on: green foxtail (Setaria viridis, SETVI); assay: Pre-emerge herbicidal activity, greenhouse screen, SETVI
Source text: as §1, §2, §3, §4, §5

[8] = tested on: barnyardgrass (Echinochloa crus-galli, ECHCG); assay: Pre-emerge herbicidal activity, greenhouse screen, ECHCG
Source text: as §1, §2, §3, §4, §5

[9] = tested on: johnsongrass (Sorghum halepense, SORHA); assay: Pre-emerge herbicidal activity, greenhouse screen, SORHA
Source text: as §1, §2, §3, §4, §5

[10] = tested on: large crabgrass (Digitaria sanguinalis, DIGSA); assay: Pre-emerge herbicidal activity, greenhouse screen, DIGSA
Source text: as §1, §2, §3, §4, §5

[11] = tested on: field corn (Zea mays L., var. Dekalb 527, CORN); assay: Pre-emerge crop damage, greenhouse screen, CORN
Source text: as §1, §2, §3, §4, §5

[12] = tested on: soybean (Glycine max L., var. Pella 86, SOY); assay: Pre-emerge crop damage, greenhouse screen, SOY
Source text: as §1, §2, §3, §4, §5

[13] = tested on: upland rice (Oryza sp., var. Tebonnet, RICE); assay: Pre-emerge crop damage, greenhouse screen, RICE
Source text: as §1, §2, §3, §4, §5

[14] = tested on: redroot pigweed (Amaranthus retroflexus, AMARE); assay: Post-emerge herbicidal activity, greenhouse screen, AMARE
Source text: as §1, §2, §3, §4, §5

[15] = tested on: velvetleaf (Abutilon theophrasti, ABUTH); assay: Post-emerge herbicidal activity, greenhouse screen, ABUTH
Source text: as §1, §2, §3, §4, §5

[16] = tested on: sicklepod (Cassia obtusifolia, CASOB); assay: Post-emerge herbicidal activity, greenhouse screen, CASOB
Source text: as §1, §2, §3, §4, §5

[17] = tested on: ivyleaf morningglory (Ipomoea hederacea, IPOHE); assay: Post-emerge herbicidal activity, greenhouse screen, IPOHE
Source text: as §1, §2, §3, §4, §5

[18] = tested on: lambsquarters (Chenopodium album, CHEAL); assay: Post-emerge herbicidal activity, greenhouse screen, CHEAL
Source text: as §1, §2, §3, §4, §5

[19] = tested on: common ragweed (Ambrosia artemisiifolia L., AMBEL); assay: Post-emerge herbicidal activity, greenhouse screen, AMBEL
Source text: as §1, §2, §3, §4, §5

[20] = tested on: green foxtail (Setaria viridis, SETVI); assay: Post-emerge herbicidal activity, greenhouse screen, SETVI
Source text: as §1, §2, §3, §4, §5

[21] = tested on: barnyardgrass (Echinochloa crus-galli, ECHCG); assay: Post-emerge herbicidal activity, greenhouse screen, ECHCG
Source text: as §1, §2, §3, §4, §5

[22] = tested on: johnsongrass (Sorghum halepense, SORHA); assay: Post-emerge herbicidal activity, greenhouse screen, SORHA
Source text: as §1, §2, §3, §4, §5

[23] = tested on: large crabgrass (Digitaria sanguinalis, DIGSA); assay: Post-emerge herbicidal activity, greenhouse screen, DIGSA
Source text: as §1, §2, §3, §4, §5

[24] = tested on: field corn (Zea mays L., var. Dekalb 527, CORN); assay: Post-emerge crop damage, greenhouse screen, CORN
Source text: as §1, §2, §3, §4, §5

[25] = tested on: soybean (Glycine max L., var. Pella 86, SOY); assay: Post-emerge crop damage, greenhouse screen, SOY
Source text: as §1, §2, §3, §4, §5

[26] = tested on: upland rice (Oryza sp., var. Tebonnet, RICE); assay: Post-emerge crop damage, greenhouse screen, RICE
Source text: as §1, §2, §3, §4, §5

Cn1c(C(F)(F)F)cc(=O)n(-c2c(F)ccc3nc(C(C)(C)C)oc23)c1=S [Compound 1-5]
Pre-emerge Herbicidal Activity AMARE ([1]; 63 g ai/ha): 100 | Pre-emerge Herbicidal Activity AMARE ([1]; 250 g ai/ha): 100 | Pre-emerge Herbicidal Activity ABUTH ([2]; 63 g ai/ha): 100 | Pre-emerge Herbicidal Activity ABUTH ([2]; 250 g ai/ha): 100 | Pre-emerge Herbicidal Activity CASOB ([3]; 63 g ai/ha): 90 | Pre-emerge Herbicidal Activity CASOB ([3]; 250 g ai/ha): 100 | Pre-emerge Herbicidal Activity IPOHE ([4]; 63 g ai/ha): 100 | Pre-emerge Herbicidal Activity IPOHE ([4]; 250 g ai/ha): 100 | Pre-emerge Herbicidal Activity CHEAL ([5]; 63 g ai/ha): 100 | Pre-emerge Herbicidal Activity CHEAL ([5]; 250 g ai/ha): 100 | Pre-emerge Herbicidal Activity AMBEL ([6]; 63 g ai/ha): 99 | Pre-emerge Herbicidal Activity AMBEL ([6]; 250 g ai/ha): 100 | Pre-emerge Herbicidal Activity SETVI ([7]; 63 g ai/ha): 100 | Pre-emerge Herbicidal Activity SETVI ([7]; 250 g ai/ha): 100 | Pre-emerge Herbicidal Activity ECHCG ([8]; 63 g ai/ha): 100 | Pre-emerge Herbicidal Activity ECHCG ([8]; 250 g ai/ha): 100 | Pre-emerge Herbicidal Activity SORHA ([9]; 63 g ai/ha): 99 | Pre-emerge Herbicidal Activity SORHA ([9]; 250 g ai/ha): 100 | Pre-emerge Herbicidal Activity DIGSA ([10]; 63 g ai/ha): 100 | Pre-emerge Herbicidal Activity DIGSA ([10]; 250 g ai/ha): 100 | Pre-emerge Herbicidal Activity CORN (crop damage) ([11]; 63 g ai/ha): 85 | Pre-emerge Herbicidal Activity CORN (crop damage) ([11]; 250 g ai/ha): 100 | Pre-emerge Herbicidal Activity SOY (crop damage) ([12]; 63 g ai/ha): 0 | Pre-emerge Herbicidal Activity SOY (crop damage) ([12]; 250 g ai/ha): 99 | Pre-emerge Herbicidal Activity RICE (crop damage) ([13]; 63 g ai/ha): 55 | Pre-emerge Herbicidal Activity RICE (crop damage) ([13]; 250 g ai/ha): 80 | Post-emerge Herbicidal Activity AMARE ([14]; 63 g ai/ha): 99 | Post-emerge Herbicidal Activity AMARE ([14]; 250 g ai/ha): 100 | Post-emerge Herbicidal Activity ABUTH ([15]; 63 g ai/ha): 100 | Post-emerge Herbicidal Activity ABUTH ([15]; 250 g ai/ha): 100 | Post-emerge Herbicidal Activity CASOB ([16]; 63 g ai/ha): 60 | Post-emerge Herbicidal Activity CASOB ([16]; 250 g ai/ha): 90 | Post-emerge Herbicidal Activity IPOHE ([17]; 63 g ai/ha): 100 | Post-emerge Herbicidal Activity IPOHE ([17]; 250 g ai/ha): 100 | Post-emerge Herbicidal Activity CHEAL ([18]; 63 g ai/ha): 95 | Post-emerge Herbicidal Activity CHEAL ([18]; 250 g ai/ha): 100 | Post-emerge Herbicidal Activity AMBEL ([19]; 63 g ai/ha): 90 | Post-emerge Herbicidal Activity AMBEL ([19]; 250 g ai/ha): 100 | Post-emerge Herbicidal Activity SETVI ([20]; 63 g ai/ha): 80 | Post-emerge Herbicidal Activity SETVI ([20]; 250 g ai/ha): 85 | Post-emerge Herbicidal Activity ECHCG ([21]; 63 g ai/ha): 100 | Post-emerge Herbicidal Activity ECHCG ([21]; 250 g ai/ha): 100 | Post-emerge Herbicidal Activity SORHA ([22]; 63 g ai/ha): 55 | Post-emerge Herbicidal Activity SORHA ([22]; 250 g ai/ha): 75 | Post-emerge Herbicidal Activity DIGSA ([23]; 63 g ai/ha): 60 | Post-emerge Herbicidal Activity DIGSA ([23]; 250 g ai/ha): 75 | Post-emerge Herbicidal Activity CORN (crop damage) ([24]; 63 g ai/ha): 15 | Post-emerge Herbicidal Activity CORN (crop damage) ([24]; 250 g ai/ha): 30 | Post-emerge Herbicidal Activity SOY (crop damage) ([25]; 63 g ai/ha): 50 | Post-emerge Herbicidal Activity SOY (crop damage) ([25]; 250 g ai/ha): 75 | Post-emerge Herbicidal Activity RICE (crop damage) ([26]; 63 g ai/ha): 65 | Post-emerge Herbicidal Activity RICE (crop damage) ([26]; 250 g ai/ha): 70
